From patent US20040242870A1, “Antiviral methods and compounds” (priority 2000, published 2004)
In brackets after ≈: the same amount, converted by molar mass.

What was measured:
[1] = system: HIV-1 strain RoJo; experiment: PBMC time-of-addition assay (RT in cell-free supernatant at 6 days); assay type: cell-based
Experimental: Peripheral blood monocular cells (PBMCs) were obtained from normal hepatitis and HIV-1 negative donors by ficoll hypaque gradient separation. The mononuclear cells were washed to remove residual separation media, counted, viability determined and resuspended in RPMI 1640 medium supplemented with 15 % FBS (heat inactivated), 2 mM L-glutamine, 100 U/mL penicillin, 100 μg/mL streptomycin, and 10 μg/mL gentamycin with 2 μg/mL phytohemagluttin (PHA) at 1×10^6 cells/mL. The cells were cultured for 48 to 72 h at 37° C., 5% CO2. Following incubation, cells were collected by centrifugation, washed and resuspended in RPMI 1640 supplemented with 15% FBS (heat inactivated), 2 mM L-glutamine, 100 U/mL penicillin, 100 μg/mL streptomycin, and 10 μg/mL gentamycin with 20 U/mL recombinant IL-2 (R & D Systems, Minneapolis, Minn.). IL-2 was included in the culture medium to maintain the cell division initiated by the PHA mitogenic stimulation, and promote optimal growing conditions for the PBMCs. The cultures were then maintained until use by ½ culture volume change with fresh IL-2 containing medium every 3 days.
(§1) Human peripheral blood mononuclear cells from a minimum of 2 donors, that have been blasted with PHA and IL-2, were counted, viability determined by Trypan Blue dye exclusion and mixed in equal ratios. Pooled donors were used to minimize the variability observed between individual donors which results from quantitative and qualitative differences in HIV infection and overall response to the PHA and IL-2 of primary lymphocyte populations. The cells were resuspended at 1×10^6 cells/mL in RPMI 1640 without phenol red supplemented with 15% Fetal Bovine Serum (heat inactivated), 2 mM L-glutamine, 100 U/mL penicillin, 100 μg/mL streptomycin, 10 μg/Ln gentamycin and IL-2 (20 U/mL, R&D Systems, Minneapolis, Minn.). Fifty microliters of cells were then distributed to the inner 60 wells of a 96 well round bottom microtiter culture plate in a standard format developed by the Infectious Disease Research department of Southern Research Institute. Each plate contains cell control wells (cells only), virus control wells (cells plus virus), and experimental wells (drug plus cells plus virus). Alternatively, cells were cultured in T25 cm^2 or T75 cm^2 tissue culture flasks at a starting density of 1×10^6 cells per ml. Serially diluted compounds were added to the microtiter plate or tissue culture flask followed by the appropriate pre-titered strain of HIV-1. For virus replication inhibition experiments the HIV-1 strain RoJo was used. This is a low passage presumable subtype B pediatric isolate with a syncytium inducing (SI) phenotype in MT-2 cells isolated by Southern Research Institute personnel. All samples were assayed in triplicate where possible with an accompanying determination of compound toxicity. The final volume per well in the microtiter plates was 200 μL. The final volume in the tissue culture flask varied depending upon experimental design and flask size. Assays were incubated for 6 days in a humidified atmosphere at 37° C., 5% CO2, after which supernatants were collected, for analysis of RT activity and cell viability by MTS dye reduction. Culture were also examined microscopically, any abnormalities noted, and in the case of tissue culture flasks cell counts and viability determined by Trypan Blue Dye exclusion.
Time-of-addition assays were performed with PBMCs in two ways. For both assays, PBMCs were isolated and cultured under the conditions as described above. Time-of-addition assays were carried out in either a tissue culture flask format (T-75 cm^2) or in microtiter wells. In both cases due to the lack of plastic adherence and heterogeneity of the PBMC population for susceptibility to infection, it was not possible to use complete removal of virus following a timed adsorption to synchronize the infection and limit the assay to a single round of infection. […]

[2] = system: PBMCs; experiment: PBMC cytotoxicity in time-of-addition assay; assay type: cell-based, Human
Description: as §1
Time-of-addition assays were performed with PBMCs in two ways. For both assays, PBMCs were isolated and cultured under the conditions as described above. Time-of-addition assays were carried out in either a tissue culture flask format (T-75 cm^2) or in microtiter wells. In both cases due to the lack of plastic adherence and heterogeneity of the PBMC population for susceptibility to infection, it was not possible to use complete removal of virus following a timed adsorption to synchronize the infection and limit the assay to a single round of infection. Therefore, serial washing by partial removal of the media was used to reduce the concentration of virus and compound (if required) in the assay. Compound addition in relationship to antiviral activity was either assessed over a short addition interval immediately before or after virus addition or for up to 72 h post infection. For all assays virus replication was assessed at 6 days of culture by determining RT expression in cell-free supernatants. In the tissue culture flask format cells were counted and Trypan Blue Dye exclusion used to monitor compound cytotoxicity. Cell viability in the 96 well microtiter plate format was determined by MTS dye reduction. AZT was used as a positive control.
At assay termination the assay plates were stained with the soluble tetrazolium-based dye MTS (CellTiter96® Reagent Promega) to determine cell viability and quantify compound toxicity. MTS is metabolized by the mitochondria enzymes of metabolically active cells to a soluble formazan product, allowing the rapid quantitative analysis cell viability and compound cytotoxicity. […] At termination of the assay 20 μL of MTS reagent was added per well and incubated for 4 h at 37° C. […]

[3] = system: PBMCs; experiment: PBMC apoptosis by flow cytometry (APO-BRDU kit); assay type: cell-based, Human
Experimental: Flow cytometry studies were carried out on PHA/IL-2 induced PBMCs treated for 6 days with the various test compounds. Prior to flow cytometry the PBMCs were washed, counted and 1×10^6 cells resuspended in PBS and stained for CD4 or CD8 surface markers using anti-CD4.PE or CD8.PE (both from PharMingen) for 30 min at 4° C. The PBMC were then washed, fixed (Cytofix) and permeabilized (Cytoperm) followed by staining for apoptosis-related DNA damage. Initial experiments used the BrdU Flow Kit from PharMigen (2354KK). […] For both kits, manufacturers instructions were followed for staining and analysis of the samples. Following the appropriate staining protocol the cells were analyzed using a Becton Dickinson (Bedford, Mass.) FACSSort
In another series of experiments, the IG compounds and cannabidiol treated cells were assessed for the induction of apoptosis (see Tables 8 and 9). […] As IL-2 is an essential component for maintaining the health of PHA induced PBMCs, a second focus of these studies focuses on the effect of the compounds in the absence of IL-2.

[4] = system: HIV-1; experiment: HeLa CD4 LTR β-gal HIV-1 attachment assay; assay type: cell-based; settings: Human immunodeficiency virus 1, HeLa, read-out: IC50
Experimental: The attachment assay was performed with the HeLa CD4 LTR , β-gal cells available from the AIDS Research and Reference Reagent Repository. […] HeLa CD4 LTR β-gal cells express cell surface CD4 and contain an LTR β-galactosidase reporter construct. Upon infection either the Tat protein incorporated into the virion or new Tat produced following virus integration and transcription trans-activates the LTR β-gal reporter, leading to expression of the β-galactosidase enzyme. HeLa CD4 LTR β-gal cells are routinely cultured with the required selection antibiotics and screened for mycoplasma contamination. Twenty-four h prior to initiation of the assay cells were trypsinized, counted and 1×10^4 cells placed in a 0.2 cm well in media without selection antibiotics. […] A known titer of virus was then added to the wells and the incubation continued for 1 h. At the end of the incubation the wells were washed 6 times with media and the culture continued for 48 h. At 48 h the wells were washed one time with PBS and β-galactosidase enzyme expression determined by chemiluminescence per manufacturers instructions (Tropix Gal-screen™, Tropix, Bedford, Mass.). Compound toxicity was monitored on sister plates using MTS dye reduction.

[5] = system: HeLa CD4 LTR β-gal cells; experiment: Compound toxicity in attachment assay (MTS dye reduction, sister plates); assay type: cell-based
Experimental: At assay termination the assay plates were stained with the soluble tetrazolium-based dye MTS (CellTiter96® Reagent Promega) to determine cell viability and quantify compound toxicity. MTS is metabolized by the mitochondria enzymes of metabolically active cells to a soluble formazan product, allowing the rapid quantitative analysis cell viability and compound cytotoxicity. […] At termination of the assay 20 μL of MTS reagent was added per well and incubated for 4 h at 37° C. Adhesive plate sealers were used in place of the lids, the sealed plate was inverted several times to mix the soluble formazan product and the plate was read spectrophotometrically at 490 nm with a Molecular Devices Vmax plate reader.
The attachment assay was performed with the HeLa CD4 LTR , β-gal cells available from the AIDS Research and Reference Reagent Repository. […] HeLa CD4 LTR β-gal cells express cell surface CD4 and contain an LTR β-galactosidase reporter construct. Upon infection either the Tat protein incorporated into the virion or new Tat produced following virus integration and transcription trans-activates the LTR β-gal reporter, leading to expression of the β-galactosidase enzyme. HeLa CD4 LTR β-gal cells are routinely cultured with the required selection antibiotics and screened for mycoplasma contamination. Twenty-four h prior to initiation of the assay cells were trypsinized, counted and 1×10^4 cells placed in a 0.2 cm well in media without selection antibiotics. Media was removed at 24 h and compound in media placed on the cells and incubated for 15 to 30 min at 37° C. A known titer of virus was then added to the wells and the incubation continued for 1 h. At the end of the incubation the wells were washed 6 times with media and the culture continued for 48 h. At 48 h the wells were washed one time with PBS and β-galactosidase enzyme expression determined by chemiluminescence per manufacturers instructions (Tropix Gal-screen™, Tropix, Bedford, Mass.). Compound toxicity was monitored on sister plates using MTS dye reduction.

[6] = system: HIV-1; experiment: HeLa CD4 LTR β-gal/HL2/3 HIV-1 fusion assay; assay type: cell-based; settings: Human immunodeficiency virus 1, HL2/3, read-out: Antiviral Activity IC50
Description: This assay uses the HeLa CD4 LTR β-gal and HL2-3 cells available from the AIDS Research and Reference Reagent Repository. The HL2/3 are derived from HeLa cells and engineered to express HIV gp120 on their cell surface and Tat protein in their cytoplasma. Thus following gp 120/CD4/coreceptor-mediated fusion; cytoplasmic mixing results in the HL2/3 cell-derived Tat trans-activation of the β-galactosidase reporter. […] Twenty-four h prior to initiation of the assay cells were trypsinized, counted and 5×10^3 cells placed in a 0.2 cm well in media without selection antibiotics. To initiate the fusion assay HeLa CD4 LTR β-gal (5×10^3 cells per 0.2 cm well) were incubated with compound for 1 h at 37° C. HL2/3 cells (5×10^3) were added to the 0.2 cm well and the incubation continued for 48 h. At 48 h the wells were washed 1 time with PBS and β-galactosidase enzyme expression determined by chemiluminescence per manufacturers instructions (Tropix Gal-screen™, Tropix, Bedford, Mass.). Compound toxicity was monitored on sister plates using MTS dye reduction.

[7] = IL-2 supplemented media, 1 μM, HIV +
[8] = IL-2 supplemented media, 1 μM, HIV −

**Q.** Which results are given for `Cc1cn([C@H]2C[C@H](N=[N+]=[N-])[C@@H](CO)O2)c(=O)[nH]c1=O` [AZT, reference compound]?
**A.** enhancement of activity ([1]; 4 h preincubation): 4.6 fold; IC50 ([1]; pre-treat 0 h prior to infection): 1.3 nM; IC50 ([1]; pre-treat 2 h prior to infection): 1.1 nM; IC50 ([1]; pre-treat 4 h prior to infection): 1.1 nM; IC50 ([1]; pre-treat 24 h prior to infection): 3.1 nM; TC50 ([2]; 6 h post infection): >4000 nM; TC50 ([2]; at infection): >4000 nM; TC50 ([2]; −4 h pre (relative to infection)): >4000 nM; % Apoptosis ([3]; IL-2 deficient media, 1 μM, HIV +): 13.7%; % Apoptosis ([3]; IL-2 deficient media, 1 μM, HIV −): 15.1%; % Apoptosis [3, 7]: 13.3%; Fold Change [3, 7]: 0.8; % Apoptosis [3, 8]: 15.0%; Fold Change [3, 8]: 1.3

**Q.** How did the IC50 ([4]; Experiment 1, pretreat 0 h) turn out when `COc1cc(-c2ccc(/N=N/c3ccc4c(S(=O)(=O)O)cc(S(=O)(=O)O)c(N)c4c3O)c(OC)c2)ccc1/N=N/c1ccc2c(S(=O)(=O)O)cc(S(=O)(=O)O)c(N)c2c1O` [CSB, Chicago Sky Blue, reference compound] was run?
**A.** 1.1 µg/mL (≈ 1.22 µM)

**Q.** What about the IC50 ([4]; Experiment 1, pretreat 4 h) of the same molecule?
**A.** 1.71 µg/mL (≈ 1.89 µM)

**Q.** And the IC50 ([4]; Experiment 1, pretreat 24 h)?
**A.** 1.3 µg/mL (≈ 1.44 µM)

**Q.** And the IC50 ([4]; Experiment 2, pretreat 0 h)?
**A.** 0.17 µg/mL (≈ 0.188 µM)

**Q.** What about the IC50 ([4]; Experiment 2, pretreat 4 h) of the same molecule?
**A.** 2.11 µg/mL (≈ 2.33 µM)

**Q.** And the IC50 ([4]; Experiment 2, pretreat 24 h)?
**A.** 4.7 µg/mL (≈ 5.19 µM)

**Q.** What about the TC50 ([5]; Experiment 1, pretreat 0 h) of the same molecule?
**A.** >10 µg/mL

**Q.** What about the TC50 ([5]; Experiment 1, pretreat 4 h) of the same molecule?
**A.** >10 µg/mL

**Q.** And the TC50 ([5]; Experiment 1, pretreat 24 h)?
**A.** >10 µg/mL

**Q.** And the TC50 ([5]; Experiment 2, pretreat 0 h)?
**A.** >10 µg/mL

**Q.** And the TC50 ([5]; Experiment 2, pretreat 4 h)?
**A.** >10 µg/mL

**Q.** What about the TC50 ([5]; Experiment 2, pretreat 24 h) of the same molecule?
**A.** >10 µg/mL

**Q.** And the IC50 [6]?
**A.** 1.75 µg/mL (≈ 1.93 µM)

B1: FAS: positive control (kit and Fas ligand) of the apoptosis procedure (protein, UniProt P48023 130-281, looked up)
Tumor necrosis factor ligand …: QIGHPSPPPEKKELRKVAHLTGKSNSRSMPLEWEDTYGIVLLSGVKYKKGGLVINETGLYFVYSKVYFRGQSCNNLPLSHKVYMRNSKYPQDLVMMEGKMMSYCTTGQMWARSSYLGAVFNLTSADHLYVNVSELSLVNFEESQTFFGLYKL
**Q.** B1 was tested. Which “% Apoptosis” value ([3]; IL-2 deficient media, HIV +, positive control, concentration not given) did it give?
**A.** 16.2%

**Q.** And the “% Apoptosis” value ([3]; IL-2 deficient media, HIV −, positive control, concentration not given)?
**A.** 13.7%

**Q.** And the “% Apoptosis” value ([3]; IL-2 supplemented media, HIV +, positive control, concentration not given)?
**A.** 17.3%

**Q.** And the “% Apoptosis” value ([3]; IL-2 supplemented media, HIV −, positive control, concentration not given)?
**A.** 17.8%
